Like-named read-outs stand apart in the source and are kept apart here.
What was measured:
Test 3: acute toxicity = conditions: mouse, in vivo
Method: In the acute toxicity tests, male mice (weight: 22 to 25 g) were used in groups of 10 each.
Eash active ingredient was dissolved in olive oil and the solution was orally administrated in a volume corresponding to the body weight.
LD50 was calculated by the area method from the mortal percent after 72 hours from the administration.
The compound numbers are the same with those of Tables 1 and 2.

Normal mice [1] = test: Test 1: hypolipidemic activity in normal mice; type: in vivo, ICR type male mice; conditions: Mus musculus, 24 h, Table 4, reference compounds (IV), 1 time adm.
Rats with hyperlipidemia = test: Test 2: antihyperlipidemic activity in rats with dietary hyperlipidemia; type: in vivo, Wister type male rats; conditions: 200 mg/kg oral, 4 days adm.
Method: The antihyperlipidemic activity in rats with dietary hyperlipidemia.
In the tests, Wister type male rats (weight: 140 g) were used in groups of 6 each.
A feed containing 2% of cholesterol, 1% of sodium cholate and 5% of cocconut oil was given for 4 days to cause hyperlipidemia.
Each active ingredient was suspended in a 1% aqueous solution of Tween 80 and the suspension was orally administrated in a dose of 100 mg/Kg or 200 mg/Kg once daily for 4 days starting with the supply of the cholesterol supplemented diet.
After 24 hours from the final administration, blood was sampled and the concentration of total cholesterols and the concentration of triglyceride were measured by the methods of Test 1.

Normal mice [2] = test: Test 1: hypolipidemic activity in normal mice; type: in vivo, ICR type male mice; conditions: 200 mg/kg oral, 1 time adm., 24 h
Method: The hypolipidemic activity in normal mice (lowering effect of normal blood lipid level).
In the tests, ICR type male mice (weight: about 35 g) were used in groups of 6 each.
Each active ingredient was suspended in a 1% aqueous solution of Tween-80 (polyoxyethylene sorbitane monoalkylate) (Atlas Co.) and the suspension was orally administrated in a dose of 200 mg/Kg.
After 24 hours from the administration, blood was sampled and the concentration of total cholesterols in blood-plasma was measured by the method described in Clinical chemistry Vol. 22 page 393 (1968) and the concentraton of triglyceride (neutral fat) was measured by Fletcher method (Clinica Chimica Acta) Vol. 10 page 451 (1964).
As the active ingredients, the compounds (I) and ethyl-α-(p-chlorophenoxy)-isobutylate having the formula [drawing 17] were used.
The same tests for hypolipidemic activity (lowering of blood lipid level) were carried out by using the reference compounds (IV).

[3] = found by the administration of ethyl-α-(p-chlorophenoxy)-isobutyrate; cited from earlier work
[4] = po, Table 4, reference compounds (IV), read-out: LD50
[5] = read-out: Total cholesterol (lowering of blood lipid level)
[6] = read-out: Triglyceride (lowering of blood lipid level)
[7] = Table 3, male mice, oral in olive oil, 72 hours, read-out: LD50 oral
[8] = series (b), comparison with compounds 2-12 (P-control 92.0, Normal 37.6)
[9] = series (b), comparison with compounds 2-12 (P-control 260.0, Normal 57.2)
[10] = series (b), comparison with compounds 2-12 (Normal 52.0)
[11] = series (b), comparison with compounds 2-12 (Normal 69.3)
[12] = series (a), comparison with compound 1 (P-control 141.9)
[13] = series (a), comparison with compound 1 (P-control 302.4)
[14] = series (a), comparison with compound 1 (Normal 62.6)
[15] = series (a), comparison with compound 1 (Normal 83.6)

Row | Compound | LD50 at 72 h (Test 3: acute toxicity; [4]) [mg/kg] | inhibition in vivo at 200 mg/kg (Normal mice [1]; [5]) [%] | inhibition in vivo at 200 mg/kg (Normal mice [1]; [6]) [%] | LD50 at 72 h (Test 3: acute toxicity; [7]) [mg/kg] | Decrease of triglyceride (Rats with hyperlipidemia; [8]) [mg/dL] | Serum total cholesterol concentration (Rats with hyperlipidemia; [9]) [mg/dL] | Decrease of triglyceride (Normal mice [2]; [10]) [mg/dL] | Decrease of cholesterol (Normal mice [2]; [11]) [mg/dL] | further results
1 | O=C(c1ccccc1)c1ccc(OC(C(=O)O)c2ccccc2)cc1 (centres unmarked) [compound 20] | > 3000 | 19 | 7 | – | – | – | – | – | –
2 | CCOC(=O)C(Oc1ccc(C(=O)c2ccccc2Cl)cc1)C1CCCCC1 (centres unmarked) [Invention Compound 8] | – | – | – | 1000 | 75.6 ± 8.3 | 185.4 ± 7.1 | – | – | –
3 | CCOC(=O)C(Oc1ccc(C(=O)c2ccccc2C)cc1)C1CCCCC1 (centres unmarked) [Invention Compound 11] | – | – | – | 700 | 89.4 ± 7.7 | 203.5 ± 12.1 | – | – | –
4 | CCOC(=O)C(Oc1ccc(C(=O)c2ccccc2F)cc1)C1CCCCC1 (centres unmarked) [Invention Compound 6] | – | – | – | 1000 | 89.2 ± 15.6 | 243.0 ± 6.1 | – | – | –
5 | CCOC(=O)C(Oc1ccc(C(=O)c2cccc(C)c2)cc1)C1CCCCC1 (centres unmarked) [Invention Compound 10] | – | – | – | 3000 | 73.6 ± 10.0 | 196.1 ± 13.2 | – | – | –
6 | CCOC(=O)C(Oc1ccc(C(=O)c2ccc(OC)cc2)cc1)C1CCCCC1 (centres unmarked) [Invention Compound 4] | – | – | – | 2500 | 88.7 ± 8.9 | 187.0 ± 18.1 | 38.2 ± 2.5 | 51.9 ± 2.6 | –
7 | CCOC(=O)C(Oc1ccc(C(=O)c2ccc(C)cc2)cc1)C1CCCCC1 (centres unmarked) [Invention Compound 9, Ethyl 2-[p-(4-methylbenzoyl)-phenoxy]-cyclohexyl acetate] | – | – | – | 3500 | 58.5 ± 6.7 | 188.7 ± 18.4 | 56.9 ± 6.1 | 59.1 ± 3.4 | –
8 | CCOC(=O)C(Oc1ccc(C(=O)c2ccccc2F)cc1)c1ccccc1 (centres unmarked) [compound 1] | 1500 | 18 | 36 | – | – | – | – | – | –
9 | CCOC(=O)C(Oc1ccc(C(=O)c2ccc(F)cc2)cc1)C1CCCCC1 (centres unmarked) [Invention Compound 2, Ethyl-2-[p-(4-fluorobenzoyl)-phenoxy]-cyclohexyl acetate] | – | – | – | 1000 | 88.5 ± 12.3 | 215.3 ± 6.7 | – | – | –
10 | CCOC(=O)C(Oc1ccc(C(=O)c2cccc(F)c2)cc1)c1ccccc1 (centres unmarked) [compound 3] | 2000 | 16 | 19 | – | – | – | – | – | –
11 | CCOC(=O)C(Oc1ccc(C(=O)c2ccccc2C)cc1)c1ccccc1 (centres unmarked) [compound 13, ethyl 2-[p-(2-methylbenzoyl)-phenoxy] phenyl acetate] | > 2000 | 27.7 | 41.9 | – | – | – | – | – | –
12 | CCOC(=O)C(Oc1ccc(C(=O)c2ccc(Cl)cc2)cc1)C1CCCCC1 (centres unmarked) [Invention Compound 1, Ethyl 2-[p-(4-chlorobenzoyl)-phenoxy]-cyclohexyl acetate] | – | – | – | 2500 | – | – | – | – | Decrease of triglyceride (Rats with hyperlipidemia; [12]): 69.7 ± 13.8 mg/dL; Serum total cholesterol concentration (Rats with hyperlipidemia; [13]): 126.5 ± 8.1 mg/dL; Decrease of triglyceride (Normal mice [2]; [14]): 52.2 ± 7.6 mg/dL; Decrease of cholesterol (Normal mice [2]; [15]): 59.4 ± 4.8 mg/dL
13 | CCOC(=O)C(C)(C)Oc1ccc(Cl)cc1 [***, ethyl-α-(p-chlorophenoxy)-isobutylate, reference compound] | – | 15 | 10 | 1500 | 62.5 ± 9.5 | 258.5 ± 16.0 | 46.8 ± 3.5 | 55.4 ± 3.1 | Decrease of triglyceride (Rats with hyperlipidemia; [12]): 80.9 ± 17.8 mg/dL; Serum total cholesterol concentration (Rats with hyperlipidemia; [13]): 285.5 ± 25.3 mg/dL; hepatic disease (hepatitis) [3]: found; Decrease of triglyceride (Normal mice [2]; [14]): 46.6 ± 7.3 mg/dL; Decrease of cholesterol (Normal mice [2]; [15]): 69.0 ± 5.3 mg/dL
14 | CCOC(=O)C(Oc1ccc(C(=O)c2ccc(Cl)cc2)cc1)c1ccccc1 (centres unmarked) [compound 11, Ethyl 2-[p-(4-chlorobenzoyl)-phenoxy]phenyl acetate] | 3000 | 24 | 52 | – | – | – | – | – | –
15 | CCOC(=O)C(Oc1ccc(C(=O)c2ccccc2Cl)cc1)c1ccccc1 (centres unmarked) [compound 7, Ethyl 2-[p-(2-chlorobenzoyl)-phenoxy]phenyl acetate] | > 10000 | 16 | 8 | – | – | – | – | – | –
16 | CCOC(=O)C(Oc1ccc(C(=O)c2cccc(F)c2)cc1)C1CCCCC1 (centres unmarked) [Invention Compound 5] | – | – | – | 3500 | 90.3 ± 16.8 | 147.5 ± 8.3 | 60.0 ± 4.2 | 54.5 ± 2.6 | –
17 | CCOC(=O)C(Oc1ccc(C(=O)c2ccc(F)cc2)cc1)c1ccccc1 (centres unmarked) [compound 5] | 1500 | 21 | 1 | – | – | – | – | – | –
18 | CCOC(=O)C(Oc1ccc(C(=O)c2cccc(Cl)c2)cc1)C1CCCCC1 (centres unmarked) [Invention Compound 7, Ethyl 2-[p-(3-chlorobenzoyl)-phenoxy]-cyclohexyl acetate] | – | – | – | 2500 | 52.1 ± 9.0 | 123.8 ± 9.1 | 45.5 ± 5.4 | 56.4 ± 5.1 | –
19 | Cc1ccccc1C(=O)c1ccc(OC(C(=O)O)c2ccccc2)cc1 (centres unmarked) [compound 14, 2-[P-(2-methylbenzoyl)-phenoxy]phenyl acetic acid] | – | 21 | 2 | – | – | – | – | – | –
20 | CCOC(=O)C(Oc1ccc(C(=O)c2ccccc2)cc1)C1CCCCC1 (centres unmarked) [Invention Compound 3] | – | – | – | 1000 | 81.6 ± 7.3 | 211.0 ± 5.5 | 60.1 ± 2.8 | 66.6 ± 1.9 | –

Source: patent US4153724A, “Benzoyl phenoxy acetic acid derivatives” (Kaken Chemical Co., Ltd., priority 1976, dated 1979)
